Patent US20230138400A1, “METHODS AND PHARMACEUTICAL COMPOSITIONS FOR REPROGRAMING IMMUNE ENVIRONMENT IN A SUBJECT IN NEED THEREOF” (INSERM (INSTITUT NATIONAL DE LA SANTE ET DE LA RECHERCHE …, priority 2016, published 2023)

Legend:
[1] = test system: Bone marrow of WT or LXRαβKO mice; experiment: Bone marrow dendritic cell differentiation (GM-CSF) from WT or LXRαβKO mice in presence of DDA; assay type: cell-based, mouse
Protocol: FIGS. 11A-B. Bone marrow was isolated from the tibia and femur of WT or LXRαβKO mice and cultivated with 20 ng/ml GM-CSF and in presence of increasing concentrations of DDA. At day 3 and 5 half of medium was replaced by fresh medium containing GM-CSF. After 7 days of culture, the percentage of (A) differentiated CD11c+CD8a dendritic cell (B) mature CD11c+CD8a+ dendritic cells (CD11c+CD8a+CD86hi CCR7hi) was measured by flow cytometry and expressed relative to the control.
FIG. 12. Bone marrow was isolated from the tibia and femur of WT or LXRαβKO mice and cultivated with 20 ng/ml GM-CSF and in presence of increasing concentrations of DDA. At day 3 and 5 half of medium was replaced by fresh medium containing GM-CSF. After 7 days of culture, the mean of florescence (MFI) of MHC class II expressed on the surface of CD11c dendritic cells: CD11c+H2db+ was measured by flow cytometry and expressed relative to the control.

E0771 tumors [2] = experiment: E0771 tumor growth analysis in C57BL/6 mice treated with DDA; assay type: in vivo, mouse; conditions: 0.37 μg/kg or 20 mg/kg DDA IP every 5 days
Protocol: FIGS. 4A-C. Tumor growth analysis (A) Exponentially growing E0771 cells were collected, washed twice in PBS and resuspended in PBS (300,000 cells in 100 μl PBS). E0771 tumors were prepared by subcutaneous transplantation into the flanks of C57BL/6 mice. When tumor measured 50 mm3, the mice were treated every 5 days with 0.37 μg/kg or 20 mg/kg DDA or with the solvent vehicle (control).

E0771 tumors [3] = experiment: Immune cells infiltrated into E0771 tumors (wild type, sh control, sh LXR) after DDA, flow cytometry; assay type: in vivo, mouse
Description: FIGS. 14A-D. […] mice were grafted subcutaneously with 300 000 E0771 tumor cells knocked down for the LXR (E0771 sh LXR) or with control cells (E0771 Sh control). […] 15 days post DDA treatment, the tumor cells were collected to assess by flow cytometry the CD4 Th1 cells (CD4+ Tbet+), CD4 T regulatory (Treg: CD4+ Foxp3+), CD8 T cells cytotoxic (CTL: CD8+ granzyme +)) or not (non CTL: CD8+ Granzyme −), macrophage M1 (F4/80+ CD206− CD86+) and M2 (F4/80+ CD206+ CD86−), dendritic cells CD11c+, CD11c+CD8α+ and myeloid derived suppressive cells (MDSC: CD11b+CD11clow, LY6C+ly6Gint) infiltrated into the tumors. To observe the cytotoxic CD8 T cells, the tumor suspension was prealably stimulated 2 h in vitro with a cocktail of PMA (50 ng/ml), ionomycine (500 ng/ml) and golgistop (concentration from manufacture BD Pharmagen), then the cells were stained with specific antibodies. The bars graphs represent the ratio between (A) Th1 and Treg, (B) CTL and non CTL, (C) M1 and M2 and (D) Alls DCs (CD11c+ and CD11c+ CD8α+) and MDSC infiltrated inside the tumors: E0771 sh control or E0771 Sh LXR (knocked down for LXRβ) from mice treated or not with DDA at 0.37 ug/kg. In cells expressing the LXRβ (E0771 shcontrol cells), DDA increases the infiltration of activated immune cells (Th1, CTL, macrophages M1 and DC) and decreases the infiltration of immunosuppressives cells (Treg, non CTL, M2 and MDSC).
FIGS. 15A-D. DDA treatment decreases the percentage of T regulatory CD4 T cells and increases the activated CD4+ and CD8+ T cells inside tumors. […] When tumors were palpable (50 mm3), the animals were treated with the vehicle (empty symbol) or s.c. 0.37 μg/kg of DDA (full symbol) every 2 days, once a day. […] post treatment, the animals were sacrified to collect the tumors. The tumors were dissociated by using gentlemac technology (Miltenyi) and then the suspension of tumor cells were stimulated with 50 ng/ml of PMA (Sigma), 500 ng/ml Ionomycin (Sigma) and 1/1000 of golgi stop (ebiosicence) during 3 h at 37° C. Tumor infiltrated Lymphocytes (TIL) isolated from E0711 tumors were stained with antibodies against CD45, CD8, CD4, PD-1, Foxp3, T-bet, IFN-g, Granzym B, PD-1 as well as live/dead stain. By gating on CD45+CD4+ (A-B) or CD45+CD8+ T cells populations (C-D), the tumor-infiltrating (A) T regulatory cells (Treg; Foxp3+), (B) effector CD4+ cells (Th1; T-bet+) and (C) cytotoxic CD8 T cells (CTL; IFN-γ+Granzym B+) were analyzed by flow cytometry. The vehicle condition is normalized at 1 and the graphs are representative of three independent experiments. (D). The graph represents the percentage of PD-1 negative CD8+ cells inside tumors of mice treated with vehicle or DDA and is representative of three independent experiments.
FIGS. 17A-D. The silencing of LXRβ in tumor affects the effects of DDA on T regulatory and cytotoxic CD8+ T cells population infiltrated inside tumor. Animals grafted with E0711 tumors expressing the LXRβ (square symbol) or knockdown for the LXRβ expression (circle symbol) treated in FIG. 2 were sacrified to collect tumors, 15 days post treatment with the vehicle (empty symbol) or 0.37 μg/kg of DDA (full symbol). The tumor were dissociated by using gentlemac technology (Miltenyi), and the suspension of tumor cells obtained were stimulated with 50 ng/ml of PMA (Sigma), 500 ng/ml Ionomycin (Sigma) and 1/1000 of golgi stop (ebiosicence) during 3 h at 370 to analyze by flow cytometry the phenotype of tumor-infiltrated lymphocytes. By gating on CD45+CD4+ (A-B) or CD45+CD8+ T cells populations (C-D) as well as live/dead stain, the tumor-infiltrating (A) T regulatory cells (Treg; Foxp3+), (B) effector CD4+ cells (Th1; T-bet+) and (C) cytotoxic CD8 T cells (CTL; IFN-γ+Granzym B+) were determined.

[4] = WT, 7 days of culture (FIG. 11)
[5] = E0771 shcontrol, 0.37 μg/kg DDA every 2 days, 15 days (FIG. 14)
[6] = decrease expression of LXRB into the tumors (FIG. 17)
[7] = tumors expressing LXRβ, 0.37 μg/kg DDA, 15 days (FIG. 17)
[8] = wild type E0771, s.c. 0.37 μg/kg DDA every 2 days (FIG. 15)

`CC(C)CCCC(C)[C@H]1CCC2C3C[C@@H](NCCc4cnc[nH]4)[C@@]4(O)C[C@@H](O)CC[C@]4(C)C3CC[C@@]21C` (stereo partly shown) [DDA, 5a-hydroxy-6b-[2-(1H-imidazol-4-yl)ethylamino]cholestan-3b-ol] was tested, and the “MHC II expression at the surface of CD11c dendritic cells” value ([1]; 1 μM DDA, WT (FIG. 12)) was “increases”, the “differentiation of CD11c into CD11c CD8a+ dendritic cells” value [1, 4] was “increases” and the “maturation of CD11c CD8a+ dendritic cells (CD86hi CCR7hi)” value [1, 4] was “increases”. For the same compound, the “effect on MHC II expression at the surface of CD11c dendritic cells” value ([1]; in absence of LXR (LXRαβKO)) was “abrogated”, the “effect on differentiation and maturation of CD11c CD8a+ dendritic cells” value ([1]; in absence of LXR (LXRαβKO)) was “abolished” and the mice survival (E0771 tumors [2]) was “increases mice survival”. The tumor growth (E0771 tumors [2]) was “inhibits tumor growth”, the “number of macrophages M1 infiltrated into the tumors” value (E0771 tumors [3]; 0.37 μg/kg DDA (FIG. 18)) was “increases” and the “ratio of dendritic cells CD11+ versus MDSC” value (E0771 tumors [3]; 0.37 μg/kg DDA (FIG. 19)) was “increases”. The “effect of DDA on immune cell infiltration” value (E0771 tumors [3]; E0771 shLXR cells (FIG. 14)) was “significantly decreased”, the “infiltration of activated immune cells (Th1, CTL, macrophages M1 and DC)” value (E0771 tumors [3]; [5]) was “increases” and the “infiltration of immunosuppressives cells (Treg, non CTL, M2 and MDSC)” value (E0771 tumors [3]; [5]) was “decreases”. The “effect of DDA on T regulatory cells infiltrated into the tumors” value (E0771 tumors [3]; [6]) was “abolished”, the “effect of DDA on activated cytotoxic CD8+ T cells infiltrated into the tumors” value (E0771 tumors [3]; [6]) was “abolished” and the “influence of decreased LXRB expression on DDA effect on effector Th1CD4+” value (E0771 tumors [3]; [6]) was “had no effect”. The “LXRβ dependence of effect on macrophages M2” value (E0771 tumors [3]; shLXRβ vs LXRβ expressing tumors (FIG. 18)) was “independent of the LXRβ”, the “number of T regulatory cells infiltrated into the tumors” value (E0771 tumors [3]; [7]) was “decreases” and the “number of activated cytotoxic CD8+ T cells infiltrated into the tumors” value (E0771 tumors [3]; [7]) was “increases”. For the same compound, the “number of effector Th1CD4+ cells infiltrated into the tumors” value (E0771 tumors [3]; [7]) was “increases”, the “activated CD4+ T cells inside tumors” value (E0771 tumors [3]; [8]) was “increases” and the “activated CD8+ T cells inside tumors” value (E0771 tumors [3]; [8]) was “increases”. The “number of T regulatory CD4 T cells inside tumors” value (E0771 tumors [3]; [8]) was “decreases”.
